Measured values as given in patent US20070092551A1, “Therapeutic agent” (TAKARA BIO INC., priority 2003, published 2007).

Assays:
Format in all cases: cell-based
3T3-L1 cells = experiment: Induction of adipocyte differentiation (amount of triglyceride biosynthesis); settings: Mus musculus, 3T3-L1, X=(S−N)/(P−N) of amount of triglyceride, P=insulin positive control, read-out: Action for Induction of Differentiation
In short: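 3T3-L1 cells were grown 7 days in DMEM/10% FBS/200 μM ascorbic acid, then given test compound with 0.25 μM dexamethasone for 45 h, then compound alone for 7 days, re-dosed at medium changes. Hexane:isopropanol-extracted triglyceride was measured in duplicate; X=(S−N)/(P−N) versus DMSO (N) and insulin (P), ranked +++ to +/−.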

[1] = target: T1, fusion protein of an yeast GAL4 DNA-binding domain and a human PPARγ ligand-binding site (Homo sapiens, UniProt P37231); experiment: PPARγ activation reporter assay in CV-1 cells; settings: test compound 10 μM, pFA-CMV (PPARγ), 24 hours
T1 construct: expressed in transfected cells; host or cells: CV-1 cells
T1 sequence (P37231 204-505): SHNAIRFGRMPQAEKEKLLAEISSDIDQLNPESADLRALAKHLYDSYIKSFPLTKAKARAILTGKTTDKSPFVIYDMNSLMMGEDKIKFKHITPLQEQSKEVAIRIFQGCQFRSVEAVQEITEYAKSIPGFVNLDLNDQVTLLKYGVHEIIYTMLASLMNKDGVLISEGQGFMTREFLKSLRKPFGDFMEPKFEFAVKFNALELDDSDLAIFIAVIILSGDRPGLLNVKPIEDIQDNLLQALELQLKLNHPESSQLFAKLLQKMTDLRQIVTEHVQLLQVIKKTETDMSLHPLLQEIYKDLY
Experimental: The activation ability for PPARγ was determined by a reporter assay using a fusion protein of an yeast GAL4 DNA-binding domain and a human PPARγ ligand-binding site.
A plasmid (pGAL4/GL3-Promoter) was prepared by repeating five times insertion of a binding site (UASg) of GAL4 into a multicloning site of a pGL3-Promoter vector (Promega). In addition, a ligand-binding site (amino acid sequence 204 to 505) of the PPARγ gene was cloned from a human liver cDNA library (manufactured by TAKARA BIO INC.) by a polymerase chain reaction, and the ligand-binding site was inserted into a multicloning site of a pFA-CMV plasmid vector ([…]) to give pFA-CMV (PPARγ).
Escherichia coli JM-109 strain was transformed with each of the two kinds of the plasmids obtained by the above-mentioned procedures, and pFA-CMV and pRL-TK (Promega) according to a conventional method. Each of the Escherichia coli cells was cultured with shaking at 37° C. for 18 hours in an LB medium containing 100 μg/mL ampicillin. Thereafter, the plasmids of each were purified according to the procedure manual of QIAfilter Plasmid midi Kit (QIAGEN).
CV-1 cells were seeded in a 24-well plate so as to have a density of 4×10^4 cells per well. Thereafter, the cells were cultured in a Dulbecco's modified Eagle's medium (manufactured by Sigma, D5796) containing 10% fetal bovine serine (manufactured by Bio Whittaker) for 24 hours under the conditions of 37° C. and 5% CO2. Thereafter, in accordance with the procedure manual of LipofectAmine 2000 (Invitrogen), the gene transfer was carried out into the CV-1 cells with 200 ng of pFA-CMV (PPARγ) or pFA-CMV, 400 ng of pGAL4/GL3-promoter, and 200 ng of pRL-TK per well, and thereafter the cells were cultured for 24 hours under the conditions of 37° C. and 5% CO2. Thereafter, the medium was exchanged with a Dulbecco's modified Eagle's medium to which a test compound dissolved in dimethyl sulfoxide was previously added so as to have a final concentration of 10 μM. Thereafter, the cells were cultured for additional 24 hours. In addition, there were set a group with addition of dimethyl sulfoxide in place of a test compound as a negative control, and a group with addition of troglytazone (manufactured by Calbiochem) so as to have a final concentration of 3 μM as a positive control. The cells were washed with a phosphate buffered saline, and 5× PassiveLysisBuffer (Promega) which was previously diluted in 5-folds with distilled water was added thereto in an amount of 100 μL per well. The mixture was shaken at room temperature for 15 minutes to lyse cells. Twenty microliters of this lysed solution was applied in accordance with the procedure manual of Dual Luciferase Assay System (Promega), and a fluorescent luciferase emission intensity and a Renilla mullerei luciferase emission intensity were measured using Mithras-LB940 (BERTHOLD TECHNOLOGIES GmbH). The enhancing action for transcriptional activation of each test compound was shown as a relative value obtained by calculating a ratio of the fluorescent luciferase emission intensity to the Renilla mullerei luciferase emission intensity, wherein the value of the group with addition of the negative control is defined as 1.

[2] = test system: mature adipocytes (3T3-L1 cells); experiment: Glucose uptake enhancement inhibited by cytochalasin B; settings: cytochalasin B 40 μM added to the 4-hydroxyderricin 7.8 μM, insulin 1 μg/mL and negative control groups
Experimental: The influence of cytochalasin B on 2-deoxyglucose uptake into matured adipocytes during the stimulation with the sample in the adipocytes was tested in accordance with the method shown in Example 83 on whether or not the enhancing action of 4-hydroxyderricin on glucose uptake shown in Example 83 is inhibited by cytochalasin B, which is an inhibitor of a glucose transporter.
Specifically, as a sample, a group with addition of a dimethyl sulfoxide solution of 4-hydroxyderricin so as to have a final concentration of 7.8 μM was set. Here, there were set a group without addition of the sample as a negative control and a group with addition of insulin so as to have a final concentration of 1 μg/mL as a positive control. Furthermore, there was set a group with addition of cytochalasin B (manufactured by nacalai tesque, 10435-81) to each group so as to have a final concentration of 40 μM in the same time as the time of addition of insulin. Thereafter, 2-deoxy-[1,2-^3H(N)]-glucose subjected to uptake into the adipocytes was determined in the same manner.

[3] = test system: mature adipocytes (3T3-L1 cells); experiment: Enhancing action on glucose uptake (2-deoxyglucose) into mature adipocytes; settings: Mus musculus, 3T3-L1, X=(S−N)/(P−N) of 2-deoxyglucose uptake, P=insulin 1 μg/mL, read-out: Enhancing Action on Glucose Uptake

| Structure (SMILES) | activation at 4 µM (3T3-L1 cells) [%] | activation at 13 µM (3T3-L1 cells) [%] | enhancing action for transcriptional activation (PPARγ) [1] | 2-deoxy-[1,2-3H(N)]-glucose uptake on addition of cytochalasin B [2] | activation at 10 µM [3] [%] | activation at 30 µM [3] [%] | activation at 10 µM (3T3-L1 cells) [%] | activation at 30 µM (3T3-L1 cells; 30 μM) [%] | activation at 1 µM (3T3-L1 cells; 1 μM) [%] | activation at 3 µM (3T3-L1 cells) [%] | activation at 3 µM [3] [%] |
| --- | --- | --- | --- | --- | --- | --- | --- | --- | --- | --- | --- |
| COc1cc(O)c(CC=C(C)C)c(O)c1C(=O)/C=C/c1ccc(O)cc1 [Xanthohumol, 4,2′,4′-trihydroxy-3′-prenyl-6′-methoxychalcone] | 15 to 30 | 30 to 60 | no enhancing action for transcriptional activation was found |  |  |  |  |  |  |  |  |
| C=C1[C@@H](C)[C@H]2[C@H](Cc3ccccc3)NC(=O)[C@]23OC(=O)/C=C/[C@H](O)CCC[C@@H](C)C/C=C/[C@H]3[C@@H]1O [cytochalasin B, reference compound] |  |  |  | almost completely inhibited |  |  |  |  |  |  |  |
| COc1ccc(C(=O)/C=C/c2ccc(OC(C)=O)cc2)c(O)c1CC=C(C)C [Compound (C078), 4-acetoxy-2′-hydroxy-3′-prenyl-4′-methoxychalcone] |  |  |  |  | 15 to 30 | > 100 | 30 to 60 | > 100 |  |  |  |
| COc1ccc(C(=O)/C=C/c2ccc(Cl)cc2)c(OC(C)=O)c1C/C=C(\C)CCC=C(C)C [Compound (C080), 4-chloro-2′-acetoxy-3′-geranyl-4′-methoxychalcone] |  |  |  |  | 30 to 60 | 60 to 100 | > 100 |  | 60 to 100 | > 100 |  |
| CC(C)=CCC/C(C)=C/Cc1c(O)ccc(C(=O)/C=C/c2ccc(Cl)cc2)c1O [Compound (C074), 4-chloro-2′,4′-dihydroxy-3′-geranylchalcone] |  |  |  |  |  | 30 to 60 | 30 to 60 |  |  | 15 to 30 |  |
| COc1cc(O)c(C(=O)/C=C/c2ccc(O)cc2)cc1CC=C(C)C [Bavachalcone, 4,2′-Dihydroxy-4′-methoxy-5′-prenylchalcone] | 15 to 30 | 30 to 60 |  |  | 30 to 60 | > 100 |  |  |  |  |  |
| CC(C)=CCCC(C)(O)C1Cc2c(ccc(C(=O)/C=C/c3ccc(O)cc3)c2O)O1 (stereo not drawn) [TB3, 1-[2,3-dihydro-4-hydroxy-2-(1-hydroxy-1,5-dimethyl-4-hexenyl)-benzofuran-5-yl]-3-(4-hydroxyphenyl)-2-propen-1-one] |  |  |  |  | > 100 |  | > 100 |  |  | > 100 | 30 to 60 |
| CC(C)=CCc1c(O)ccc(C(=O)/C=C/c2ccc(O)cc2)c1O [Isobavachalcone] |  |  |  |  | 60 to 100 | > 100 | 60 to 100 |  |  | 30 to 60 | 15 to 30 |
| CC(C)=CCc1c(O)ccc(C(=O)/C=C/c2ccc(Cl)cc2)c1O [Compound (C075), 4-chloro-2′,4′-dihydroxy-3′-prenylchalcone] |  |  |  |  | 15 to 30 | 30 to 60 | 30 to 60 |  |  | 15 to 30 |  |
| COc1ccc(C(=O)/C=C/c2ccc(OC(C)=O)cc2)c(OC(C)=O)c1C/C=C(\C)CCC=C(C)C [Compound (C064-1), 4,2′-diacetoxy-3′-geranyl-4′-methoxychalcone] |  |  |  |  | 60 to 100 | > 100 | > 100 |  |  | > 100 |  |
| O=C(/C=C/c1ccc(Cl)cc1)c1ccccc1OCc1ccccc1 [Compound (C066), 4-chloro-2′-benzyloxychalcone] |  |  |  |  | 60 to 100 | 60 to 100 | > 100 |  |  | 60 to 100 |  |
| COc1ccc(C(=O)CCc2ccc(O)cc2)c(O)c1CCC(C)C [Compound (C033), 1-(2-hydroxy-3-(3-methylbutyl)-4-methoxyphenyl)-3-(4-hydroxyphenyl)-propan-1-one] |  |  |  |  | 30 to 60 | 60 to 100 | > 100 |  |  | > 100 | 30 to 60 |
| COc1ccc(C(C)=O)c(O)c1Cc1ccccc1 [Compound (C055), 2′-hydroxy-3′-benzyl-4′-methoxyacetophenone] |  |  |  |  | 30 to 60 | 60 to 100 | 30 to 60 |  |  | 15 to 30 | 15 to 30 |
